Article PMC4725915, “Ruthenium(II) Complexes with 2-Phenylimidazo[4,5-f][1,10]phenanthroline Derivatives that Strongly Combat Cisplatin-Resistant Tumor Cells” (Scientific Reports, 2016)

Tests used:
Type in all cases: cell-based, human
HeLa = test: MTT cytotoxicity assay, HeLa; conditions: 48 h, mean ± SD of three experiments
Method: (§1) Compounds 1–4 were evaluated against three tumor cell lines derived from different tissues, including the cervix (HeLa), lung (A549) and cisplatin-resistant lung (A549R) tissues. For comparison, the cytotoxicity of cisplatin was also evaluated. As a control, the toxicities of the complexes were also tested against the normal human cell line (LO2).
(§2) The human cervix carcinoma cell line (HeLa), the lung carcinoma cell lines (A549 and A549R), and the human hepatocyte cell line (LO2) were obtained from the Experimental Animal Center at Sun Yat-Sen University (Guangzhou, China). The cells were maintained in Dulbecco’s modified Eagle’s medium (DMEM, Gibco BRL) or Roswell Park Memorial Institute 1640 (RPMI 1640, Gibco BRL) medium supplemented with 10% fetal bovine serum (FBS, Gibco BRL), 100 μg/mL streptomycin, and 100 U/mL penicillin (Gibco BRL) in a humidified incubator under 5% CO2 and 20% O2 at 37 °C. To maintain the resistant phenotype, A549R cells were incubated with 5 μM cisplatin and cultured in drug-free medium for at least a week before use.
(§3) The cytotoxicity of the ruthenium complexes and cisplatin were determined by an MTT assay. Briefly, cells were seeded into 96-well microtiter plates at 1 × 10^4 cells per well and grown overnight at 37 °C in a 5% CO2 incubator; then, different concentrations of the complexes in cell culture medium were added to the cultures. The plates were then incubated in an incubator for 48 h under the same conditions. The stock MTT dye solution (15 μL, 5 mg/mL) was added to each well. After 4 h of incubation, the cultures were removed and 150 μL of DMSO was added to each well. The optical density of each well was measured on a microplate spectrophotometer at a wavelength of 595 nm.

A549R = test: MTT cytotoxicity assay, cisplatin-resistant A549R; conditions: 48 h, mean ± SD of three experiments
Method: as §1, §2, §3

A549R MCTSs = test: Cytotoxicity test on 3D MCTSs (Cell TiterGlo ATP); conditions: A549R MCTSs (~400 μm in diameter), 48 h
Method: MCTSs were cultured using the liquid overlay method. A549R cells in the exponential growth phase were dissociated by a trypsin/EDTA solution to gain single-cell suspensions. A number of 3000 diluted A549R cells were transferred to 1.5% agarose-coated transparent 96-well plates with 200 μL of DMEM containing 10% serum. The single cells formed MCTS aggregates approximately 400 μm in diameter after three days with 5% CO2 and 20% O2 at 37 °C. After formation of the MCTSs, each MCTS in a 96-well plate was imaged with a phase contrast microscope (Zeiss Axio Observer D1, Germany) using 10× objective to monitor their color, integrity, diameter, and volume.
A549R MCTSs (diameters ≈400 μm) were treated by carefully replacing 50% of the medium with drug-supplemented standard medium using an eight-channel pipet. In parallel, 50% of the medium containing solvent was replaced with solvent-free medium for the untreated MCTSs. Three A549R MCTSs were treated per condition and drug concentration; the DMSO volume was less than 1% (v/v). The MCTSs were then allowed to incubate for another 48 h. The cytotoxicities of the Ru(II) complexes toward the MCTSs were measured using ATP concentrations with a Cell TiterGlo kit (Promega). After 30 min of incubation, the MCTSs were carefully transferred into black-sided, flat-bottomed 96-well plates (Corning) and mixed with a pipet for luminescence measurements on an Infinite M200 PRO instrument (TECAN).

[1] = system: cancer cell lines (HeLa, A549, A549R); test: MTT cytotoxicity, all tested cancer cell lines taken together; conditions: 48 h, read-out: IC50 toward all the tested cancer cell lines
Method: as §1, §3

A549R cells [2] = test: Cell cycle analysis (PI, FACS); conditions: 24 h
Method: Cell proliferation is activated under pathological conditions and plays a crucial role in cancer cell regeneration. Deregulated cell-cycle control is a fundamental aspect of cancer and the process is related to the proliferation and death of cancer cells. Therefore, the effect of cyclometalated complex 4 on cell cycles was investigated using fluorescence-activated cell sorting (FACS) analysis of the DNA content. […] A higher dose of complex 4 (2.0 μM) elicited a strong G2/M arrest of A549R cells, accounting for 46% of the cell population (control, 12.82%). The enrichment of the G2/M phase of the cell cycle of A549R cells may have led to their apoptosis by disrupting the cell cycle.
A549R cells were treated with different concentrations of complex 4 (i.e., 0.5, 1.0 and 2.0 μM) for 24 h. The cells were collected and fixed in 2 mL of 70% cold aqueous ethanol (v/v). After incubation, the cells were centrifuged and washed three times with cold PBS and resuspended in 0.5 mL of PBS. To a 0.5 mL cell sample, […] of RNase A (1 mg/mL in PBS) was added and incubated for 30 min at 37 °C; then, […] of a PI ([…] in PBS) solution was added after gentle mixing for 5 min at 37 °C in the dark. The samples were resuspended and 10,000 cells were analyzed for each sample by a BD FACS Calibur cytometer (Becton Dickinson, Heidelberg, Germany). The data were acquired and analyzed with ModFit LT 3.2.

A549R cells [3] = test: Real-time cell growth and proliferation assay (xCELLigence)
Method: In addition, a real-time cell growth and proliferation assay using an xCELLigence System was utilized to confirm the high toxicity of complex 4 on A549R cells. […] In contrast, A549R cells were killed by treatment with complex 4 in a concentration-dependent manner.
This experiment was performed using an xCELLigence RTCA DP system real time cell analyzer (Roche Diagnostics GmbH, Germany). In brief, 80 μL of cell culture media was added to each well of a 16-well plate (E-plate 16, Roche Diagnostics GmbH, Germany). The 16-well plates were then connected to the system and checked for suitable electrical contacts in the real time cell analyzer, and the background impedance was measured for 24 s. Meanwhile, the A549R cells were suspended in cell culture medium and adjusted to 5 × 10^4 cells/mL, and 100 μL of each cell suspension was added to each well of […]. Approximately 24 h after seeding, the A549R cells were in the logarithmic phase of growth, and a wide range of concentrations of complex 4 and cisplatin (100 μM) were added. The cells were automatically monitored every 15 min over 48 h by the xCELLigence system. Data were analyzed using RTCA software (version 1.2) that was supplied with the instrument.

A549R cells [4] = test: AO/EB staining apoptosis assay; conditions: 0.50–2.0 μM
Source text: Cell apoptosis is a naturally occurring, programmed and targeted cellular death mechanism that is very complex and is regulated by some proteins. This process is also greatly affected by extrinsic conditions. Therefore, it is important to study the influence of drug-induced cellular apoptosis. Firstly, the induction of A549R cell apoptosis by complex 4 was investigated by apoptosis assays using AO/EB staining and fluorescence microscopy. […] Necrotic cells are stained in red but have nuclear morphologies that resemble those of viable cells.

## Ru(phen)(bzq)(tbtfpip)(PF6) [Complex 4]
HeLa
  IC50: 2400 ± 300 nM
A549R
  IC50: 800 ± 100 nM
A549R MCTSs
  IC50: 1800 ± 300 nM
[1]
  IC50: 800 to 2400 nM
A549R cells [2]; 2.0 μM, control 12.82%
  G2/M share of the cell population: 46%
A549R cells [2]; control 68.46
  percentage of cells in the G0/G1 phase: 30.87%
A549R cells [3]; 0.5 μM
  effect on A549R cell proliferation (xCELLigence): began to die after a short delay
A549R cells [3]; 2.0 μM
  effect on A549R cell proliferation (xCELLigence): rapidly abolished cellular proliferation
A549R cells [4]
  AO/EB staining result: predominantly induced apoptosis
